From ChEMBL document CHEMBL3600287, “New heterocyclic compounds: Synthesis and antitrypanosomal properties” (Bioorg Med Chem, 2015)
pIC50: −log10 of the molar value.

Legend:
[1] = tested on: Trypanosoma brucei brucei; experiment: Antitrypanosomal activity against Trypanosoma brucei brucei CMP infected in Swiss mouse assessed as parasite number level ul of blood at 50 umol/kg, ip administered as single dose measured on day 2; assay type: functional
[2] = tested on: Trypanosoma brucei brucei; experiment: Antitrypanosomal activity against Trypanosoma brucei brucei CMP infected in Swiss mouse assessed as parasite number level ul of blood at 50 umol/kg, ip administered as single dose measured on day 3; assay type: functional
[3] = tested on: Trypanosoma brucei brucei; experiment: Antitrypanosomal activity against Trypanosoma brucei brucei CMP infected in Swiss mouse assessed as parasite number level ul of blood at 50 umol/kg, ip administered as single dose measured on day 4; assay type: functional
[4] = tested on: Trypanosoma brucei gambiense; experiment: Antitrypanosomal activity against Trypanosoma brucei gambiense FeoITMAP/1893 assessed as inhibition of parasite growth after 72 hrs by resazurin dye based microplate reader analysis; assay type: functional, organism-based; conditions: FeoITMAP/1893, 72 h
[5] = Cytotoxicity against mouse 3T6 cells assessed as inhibition of cell proliferation after 48 hrs by MTT assay; assay type: cell-based
[6] = Selectivity index, ratio of CC50 for mouse 3T6 cells to IC50 for Trypanosoma brucei gambiense strain FeoITMAP/1893; assay type: functional
[7] = tested on: Trypanosoma brucei brucei; experiment: Antitrypanosomal activity against Trypanosoma brucei brucei CMP infected in Swiss mouse assessed as mean survival time at 100 umol/kg, ip administered as single dose; assay type: functional
[8] = tested on: Trypanosoma brucei brucei; experiment: Antitrypanosomal activity against Trypanosoma brucei brucei CMP infected in Swiss mouse assessed as mean survival time at 50 umol/kg, ip administered as single dose; assay type: functional
[9] = tested on: Trypanosoma brucei brucei; experiment: Antitrypanosomal activity against Trypanosoma brucei brucei CMP infected in Swiss mouse assessed as cure rate at 100 umol/kg, ip administered as single dose; assay type: functional
[10] = tested on: Trypanosoma brucei brucei; experiment: Antitrypanosomal activity against Trypanosoma brucei brucei CMP infected in Swiss mouse assessed as cure rate at 50 umol/kg, ip administered as single dose; assay type: functional
Mus musculus [11] = experiment: Toxicity against Swiss mouse infected with Trypanosoma brucei brucei CMP assessed as animal death at 100 umol/kg, ip administered as single dose; assay type: organism-based; conditions: in vivo
Mus musculus [12] = experiment: Toxicity against Swiss mouse infected with Trypanosoma brucei brucei CMP assessed as animal death at 50 umol/kg, ip administered as single dose; assay type: organism-based; conditions: in vivo
[13] = tested on: Trypanosoma brucei brucei; experiment: Antitrypanosomal activity against Trypanosoma brucei brucei CMP infected in Swiss mouse assessed as parasite number level ul of blood at 100 umol/kg, ip administered as single dose measured on day 2; assay type: functional
[14] = tested on: Trypanosoma brucei brucei; experiment: Antitrypanosomal activity against Trypanosoma brucei brucei CMP infected in Swiss mouse assessed as parasite number level ul of blood at 100 umol/kg, ip administered as single dose measured on day 3; assay type: functional
[15] = tested on: Trypanosoma brucei brucei; experiment: Antitrypanosomal activity against Trypanosoma brucei brucei CMP infected in Swiss mouse assessed as parasite number level ul of blood at 100 umol/kg, ip administered as single dose measured on day 4; assay type: functional
[16] = Cytotoxicity against monkey LLC-MK2 cells; assay type: cell-based, Macaca mulatta; conditions: rhesus monkey
[17] = tested on: Trypanosoma brucei brucei; experiment: Antitrypanosomal activity against Trypanosoma brucei brucei CMP infected in Swiss mouse assessed as parasite number level ul of blood at 100 umol/kg, ip administered as single dose measured on day 30; assay type: functional

Row | Structure (SMILES) | pIC50 [4] | CC50 at 48 h [5] [µM] | Ratio CC50/IC50 [6] | MST [7] [days] | Activity [9] [%] | Activity (Mus musculus [11]) | Activity [13] [µL⁻¹] | Activity [14] [µL⁻¹] | Activity [15] [µL⁻¹] | also measured
1 | CCOC(=O)c1cn(C2CC2)c2cc(N3CCN(Cc4ccccc4)CC3)c(F)cc2c1=O | 5.22 | > 30 | 5 | 8.2 | 0 | Non-toxic | 0 | 0 | 0 | Activity [1]: 0 µL⁻¹; Activity [2]: 0 µL⁻¹; Activity [3]: 7 µL⁻¹; MST [8]: 6.1 days; Activity [10]: 0%; Activity (Mus musculus [12]): Non-toxic
2 | CCOC(=O)c1cn(C2CC2)c2cc(N3CCN(CC45CC6CC(CC(C6)C4)C5)CC3)c(F)cc2c1=O | 4.64 | 27.8 | 1.2 |  |  |  |  |  |  | 
3 | Fc1ccc2[nH]c(-c3ccc(Nc4ccnc5cc(Cl)ccc45)cc3)nc2c1 | 5.70 |  | 5.3 | 1.2 | 0 | Non-toxic | 0 | 97 | 31590 | Activity [1]: 13.7 µL⁻¹; Activity [2]: 117 µL⁻¹; Activity [3]: 28317 µL⁻¹; CC50 [16]: 10.6 µM; MST [8]: 1.1 days; Activity [10]: 0%; Activity (Mus musculus [12]): Non-toxic
4 | Clc1ccc2c(Nc3ccc(-c4nc5ccccc5[nH]4)cc3)ccnc2c1 | 5.42 |  | 4.1 |  |  |  |  |  |  | CC50 [16]: 15.5 µM
5 | N=C(N)c1ccc(OCCCCCOc2ccc(C(=N)N)cc2)cc1.O=S(=O)(O)CCO |  |  |  | >30 | 100 | Non-toxic |  | 0 | 0 | Activity [17]: 0 µL⁻¹
6 | CCN(CC)CCCC(C)Nc1ccnc2cc(Cl)ccc12.O=P(O)(O)O.O=P(O)(O)O (stereo not drawn) [CHLOROQUINE PHOSPHATE] |  |  |  | 0 | 0 | Non-toxic | 23.7 | 498 | 42607 | 
7 | CCOC(=O)c1cn(C2CC2)c2cc(N3CCNCC3)c(F)cc2c1=O [CIPROFLOXACIN ETHYL ESTER] | 4.59 | > 30 | 1.2 |  |  |  |  |  |  | 
8 | O=C(O)c1cn(C2CC2)c2cc(N3CCNCC3)c(F)cc2c1=O [CIPROFLOXACIN] | 4.28 |  |  |  |  |  |  |  |  | 
9 | N=C(N)c1ccc(OCCCCCOc2ccc(C(=N)N)cc2)cc1 [PENTAMIDINE] | 8.31 |  |  |  |  |  |  |  |  | 
